The text below walks through data of US9796711B2, “Substituted pyrazolo[3,4-b]pyridin-6-carboxylic acids and method of use” (AbbVie S.àr.l., priority 2015, dated 2017).

Test [1] concerns the target T1, ΔF508-CFTR (Homo sapiens, UniProt P13569, DEL508-508).
T1 construct: host or cells: CFBE41o-, doxycycline-inducible
The test is described as follows: CFTR cell surface levels using HRP-tagged ΔF508-CFTR expressing CFBE cells, intrinsic corrector capacity. It is filed as cell-based. The settings on record: for pEC50: read-out: EC50. The essentials:
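Here the cells express ΔF508-CFTR with horseradish peroxidase inserted in extracellular loop 4, so only rescued channel at the surface gives luminescent signal. Compounds act on their own, 20 h at the reduced temperature of 33 °C; values are percent activity relative to DMSO and a 3 μM corrector.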

Test [2] has as its target T1, ΔF508-CFTR. The test is described as follows: CFTR cell surface levels using HRP-tagged ΔF508-CFTR expressing CFBE cells, in the presence of a co-corrector. It is filed as cell-based. The settings on record: HRP-tagged ΔF508-CFTR expressing CFBE cells, in the presence of 3 μM co-corrector; for pEC50: read-out: EC50. Put shortly: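 Cells were seeded with 0.5 μg/mL doxycycline and held 68 h at 37 °C. Test compounds plus 3 μM co-corrector (final 0.1% DMSO) were then added for 20 h at 33 °C. Washed cells received HRP substrate, and luminescence was normalized between DMSO and 3 μM co-corrector controls.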

[3] abbreviates: HRP-tagged ΔF508-CFTR CFBE41o- cells, compounds alone (intrinsic corrector capacity), 20 hours at 33° C., positive control 3 μM corrector.
The mark [4] stands for this setting: HRP-tagged ΔF508-CFTR CFBE41o- cells, compounds alone (intrinsic corrector capacity), 20 hours at 33° C.
Where [5] appears, read: HRP-tagged ΔF508-CFTR expressing CFBE cells, intrinsic corrector capacity (no co-corrector), 33° C., 20 hours.

Broadly, the pEC50 is the negative decadic logarithm of the EC50, by convention in mol/L.

Structures are written as SMILES. pEC50: −log10 of the molar value.

T1 sequence (P13569 with tags, fused parts or gaps DEL508-508): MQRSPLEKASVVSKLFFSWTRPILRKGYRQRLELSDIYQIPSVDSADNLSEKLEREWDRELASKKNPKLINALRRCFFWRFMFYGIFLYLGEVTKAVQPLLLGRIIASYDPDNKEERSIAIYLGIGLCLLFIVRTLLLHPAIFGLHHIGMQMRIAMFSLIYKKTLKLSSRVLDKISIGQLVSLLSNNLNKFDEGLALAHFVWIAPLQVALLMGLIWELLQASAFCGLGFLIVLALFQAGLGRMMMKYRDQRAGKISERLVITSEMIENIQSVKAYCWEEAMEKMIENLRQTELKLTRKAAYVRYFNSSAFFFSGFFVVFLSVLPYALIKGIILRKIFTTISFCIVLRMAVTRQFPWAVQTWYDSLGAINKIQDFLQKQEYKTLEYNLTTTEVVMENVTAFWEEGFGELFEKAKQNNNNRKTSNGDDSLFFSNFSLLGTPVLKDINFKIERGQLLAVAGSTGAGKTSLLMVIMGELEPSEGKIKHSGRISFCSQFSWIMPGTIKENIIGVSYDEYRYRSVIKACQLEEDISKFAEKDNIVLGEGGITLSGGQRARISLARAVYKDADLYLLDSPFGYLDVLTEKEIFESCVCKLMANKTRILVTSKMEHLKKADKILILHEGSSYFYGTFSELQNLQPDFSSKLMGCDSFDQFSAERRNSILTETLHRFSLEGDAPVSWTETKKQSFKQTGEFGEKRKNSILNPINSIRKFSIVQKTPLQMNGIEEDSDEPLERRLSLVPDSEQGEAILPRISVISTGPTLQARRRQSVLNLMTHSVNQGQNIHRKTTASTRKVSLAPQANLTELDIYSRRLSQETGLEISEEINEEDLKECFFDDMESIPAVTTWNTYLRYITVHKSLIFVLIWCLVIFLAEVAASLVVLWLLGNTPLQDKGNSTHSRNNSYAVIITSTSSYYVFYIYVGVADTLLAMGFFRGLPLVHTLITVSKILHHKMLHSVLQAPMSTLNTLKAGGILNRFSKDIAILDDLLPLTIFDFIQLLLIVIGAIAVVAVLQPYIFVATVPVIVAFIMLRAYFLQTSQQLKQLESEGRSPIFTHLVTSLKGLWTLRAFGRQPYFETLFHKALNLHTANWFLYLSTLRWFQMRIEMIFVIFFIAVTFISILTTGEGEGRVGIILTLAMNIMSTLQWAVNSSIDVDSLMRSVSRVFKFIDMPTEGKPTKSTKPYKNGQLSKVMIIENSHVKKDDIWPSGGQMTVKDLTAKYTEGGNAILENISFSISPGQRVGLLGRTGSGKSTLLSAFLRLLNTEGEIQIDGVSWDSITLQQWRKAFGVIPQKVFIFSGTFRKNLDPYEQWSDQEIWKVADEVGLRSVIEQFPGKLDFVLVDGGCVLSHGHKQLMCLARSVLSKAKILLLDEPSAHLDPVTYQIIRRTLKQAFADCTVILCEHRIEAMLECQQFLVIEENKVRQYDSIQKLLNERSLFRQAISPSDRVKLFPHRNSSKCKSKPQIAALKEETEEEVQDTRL

As for `Cc1nn(C2CCCCC2)c2nc(C(=O)O)cc(-c3ccc(N(C)C)nc3)c12` [compound 99, 1-cyclohexyl-4-[6-(dimethylamino)pyridin-3-yl]-3-methyl-1H-pyrazolo[3,4-b]pyridine-6-carboxylic acid], the “% Activation” value was determined as 80.69% in test [1] (setting [3]) and 247.8% in test [2]. Besides, the values for the pEC50 in test [1] (setting [4]) and in test [2] were 5.82 and 5.96, respectively.

Take `CC(C)c1nn([C@@H]2CCC[C@H](O)C2)c2nc(C(=O)O)cc(-c3ccc(N4CCOCC4)cc3)c12` (racemic) [compound 195, rac-1-[(1R,3S)-3-hydroxycyclohexyl]-4-[4-(morpholin-4-yl)phenyl]-3-(propan-2-yl)-1H-pyrazolo[3,4-b]pyridine-6-carboxylic acid]: the results for the “% Activation” value in test [1] (setting [3]) and in test [2] were 27.46% and 174.9%, respectively. The values for the pEC50 in test [1] (setting [4]) and in test [2] were less than 5.00 and 5.48, respectively.

As to `O=C(O)c1cc(OCCN2CCNC2=O)c2c(C3CCC3)nn(-c3ccccc3)c2n1` [compound 640, 3-cyclobutyl-4-[2-(2-oxoimidazolidin-1-yl)ethoxy]-1-phenyl-1H-pyrazolo[3,4-b]pyridine-6-carboxylic acid], in test [1] (setting [5]), the “% Activation” value was found to be 13.97% and the pEC50 is less than 5.00. Further, in test [2], the “% Activation” value is 137.45% and the pEC50 is less than 5.00.

In the case of `Cc1nn(-c2ccccc2)c2nc(C(=O)O)cc(-c3ccc(N4CCCC(O)C4)cc3)c12` (centres unmarked) [compound 198, 4-[4-(3-hydroxypiperidin-1-yl)phenyl]-3-methyl-1-phenyl-1H-pyrazolo[3,4-b]pyridine-6-carboxylic acid], the “% Activation” value was determined as 220% in test [1] (setting [3]) and 364% in test [2]. Moreover, the values for the pEC50 in test [1] (setting [4]) and in test [2] were 5.95 and 5.99, respectively.

On to `CCOCC(=O)N1CCN(c2cc(C(=O)O)nc3c2c(C(C)C)nn3-c2ccc(F)cc2)CC1` [compound 775, 4-[4-(ethoxyacetyl)piperazin-1-yl]-1-(4-fluorophenyl)-3-(propan-2-yl)-1H-pyrazolo[3,4-b]pyridine-6-carboxylic acid], for which, in test [1] (setting [5]), the “% Activation” value came out at 93.07% and the pEC50 is 5.78. For the same compound, in test [2], the “% Activation” value turned out to be 262.4% and the pEC50 is 5.78.

For `COCC1CCN(c2cc(C(=O)O)nc3c2c(C)nn3-c2ccccc2)CC1` [compound 291, 4-[4-(methoxymethyl)piperidin-1-yl]-3-methyl-1-phenyl-1H-pyrazolo[3,4-b]pyridine-6-carboxylic acid], the entries for the “% Activation” value in test [1] (setting [3]) and in test [2] were 168.85% and 349.55%, respectively. The pEC50 in test [1] (setting [4]) is 5.77; in test [2], 5.85.

On to `CN(C)CC(C)(C)COc1cc(C(=O)O)nc2c1c(C1CCC1)nn2-c1ccccc1` [compound 636, 3-cyclobutyl-4-[3-(dimethylamino)-2,2-dimethylpropoxy]-1-phenyl-1H-pyrazolo[3,4-b]pyridine-6-carboxylic acid], for which the “% Activation” value was 184.1% in test [1] (setting [5]) and 391.3% in test [2]. In addition, the pEC50 in test [1] (setting [5]) is 6.21; in test [2], 6.10.

`CC(C)c1nn(-c2cccc(N3CCC3)c2)c2nc(C(=O)O)cc(-c3ccc(N(C)C4CCOCC4)cc3)c12` [compound 240, 1-[3-(azetidin-1-yl)phenyl]-4-{4-[methyl(oxan-4-yl)amino]phenyl}-3-(propan-2-yl)-1H-pyrazolo[3,4-b]pyridine-6-carboxylic acid]: the “% Activation” value in test [1] (setting [3]) amounted to 380.6%; in test [2], 609.05%. Further, the pEC50 in test [1] (setting [4]) is 6.23; in test [2], 6.29.

For the compound `CCCN1CCN(c2cc(C(=O)O)nc3c2c(C(C)C)nn3-c2ccc(F)cc2)CC1` [compound 777, 1-(4-fluorophenyl)-3-(propan-2-yl)-4-(4-propylpiperazin-1-yl)-1H-pyrazolo[3,4-b]pyridine-6-carboxylic acid], the “% Activation” value in test [1] (setting [5]) turned out to be 95%; in test [2], 254.9%. Moreover, the pEC50 is 5.78 in test [1] (setting [5]) and 6.02 in test [2].

`CC(C)c1nn(-c2ccc(F)cc2)c2nc(C(=O)O)cc(N3CC(N4CCOCC4)C3)c12` [compound 765, 1-(4-fluorophenyl)-4-[3-(morpholin-4-yl)azetidin-1-yl]-3-(propan-2-yl)-1H-pyrazolo[3,4-b]pyridine-6-carboxylic acid]: the figures for the “% Activation” value in test [1] (setting [5]) and in test [2] were 45.48% and 181.3%, respectively. In addition, the pEC50 in test [1] (setting [5]) is 5.78; in test [2], 6.13.

As for `COC1CCCN(c2cc(C(=O)O)nc3c2c(C2CCC2)nn3-c2ccccc2)C1` (centres unmarked) [compound 468, 3-cyclobutyl-4-(3-methoxypiperidin-1-yl)-1-phenyl-1H-pyrazolo[3,4-b]pyridine-6-carboxylic acid], in test [1] (setting [5]), the “% Activation” value is recorded as 120.3% and the pEC50 was 6.21. In addition, in test [2], the “% Activation” value is on record as 297.2% and the pEC50 was 6.43.

As for `CC(C)c1nn(-c2ccc(F)cc2)c2nc(C(=O)O)cc(N3CCC(C)(N4CCCCC4)CC3)c12` [compound 784, 1-(4-fluorophenyl)-4-(4′-methyl [1,4′-bipiperidin]-1′-yl)-3-(propan-2-yl)-1H-pyrazolo[3,4-b]pyridine-6-carboxylic acid], in test [1] (setting [5]), the “% Activation” value worked out at 38.94% and the pEC50 was 5.91. In test [2], the “% Activation” value was 225.6% and the pEC50 was 5.78.

Consider `COCC1CCN(c2cc(C(=O)O)nc3c2c(C(C)C)nn3CC(C)C)CC1` [compound 548, 4-[4-(methoxymethyl)piperidin-1-yl]-1-(2-methylpropyl)-3-(propan-2-yl)-1H-pyrazolo[3,4-b]pyridine-6-carboxylic acid], for which, in test [1] (setting [5]), the “% Activation” value came to 88.93% and the pEC50 was 5.60. In test [2], the “% Activation” value is listed as 306% and the pEC50 was 5.48.

As for `Cc1cccc(-n2nc(C(C)C)c3c(N4CCC5C(CCN5C(=O)OC(C)(C)C)C4)cc(C(=O)O)nc32)c1` (centres unmarked) [compound 234, 4-[1-(tert-butoxycarbonyl)octahydro-5H-pyrrolo[3,2-c]pyridin-5-yl]-1-(3-methylphenyl)-3-(propan-2-yl)-1H-pyrazolo[3,4-b]pyridine-6-carboxylic acid], the “% Activation” value is given as 292.97% in test [1] (setting [3]) and 510.27% in test [2]. In addition, the pEC50 is 6.33 in test [1] (setting [4]) and 6.43 in test [2].

Take `COC(C)(C1CCN(c2cc(C(=O)O)nc3c2c(C2CCC2)nn3-c2ccccc2)CC1)C(F)(F)F` (centres unmarked) [compound 499, 3-cyclobutyl-1-phenyl-4-[4-(1,1,1-trifluoro-2-methoxypropan-2-yl)piperidin-1-yl]-1H-pyrazolo[3,4-b]pyridine-6-carboxylic acid]: the results for the “% Activation” value in test [1] (setting [5]) and in test [2] were 242.93% and 435.6%, respectively. In addition, the negative-log EC50 (pEC50) in test [1] (setting [5]) was 6.41; in test [2], 6.70.

Regarding `O=C(O)c1cc(N2CCCC3(CC3)C2)c2c(C3CCC3)nn(-c3ccccc3)c2n1` [compound 419, 4-(5-azaspiro[2.5]octan-5-yl)-3-cyclobutyl-1-phenyl-1H-pyrazolo[3,4-b]pyridine-6-carboxylic acid], the “% Activation” value in test [1] (setting [5]) was determined as 136%; in test [2], 293.9%. Moreover, the pEC50 was 6.01 in test [1] (setting [5]) and 6.29 in test [2].

With `Cc1nn(-c2ccccc2)c2nc(C(=O)O)cc(N3CC4CNCCN4C3=O)c12` (centres unmarked) [compound 290, 3-methyl-4-(3-oxohexahydroimidazo[1,5-a]pyrazin-2(3H)-yl)-1-phenyl-1H-pyrazolo[3,4-b]pyridine-6-carboxylic acid], the “% Activation” value in test [1] (setting [3]) is reported as 12.145%; in test [2], 127.35%. In addition, the pEC50 in test [1] (setting [4]) and in test [2] was 5.12 throughout.

On to `N#CC1CCN(C2CCN(c3cc(C(=O)O)nc4c3c(C3CCC3)nn4-c3ccc(F)cc3)CC2)C1` (centres unmarked) [compound 870, 4-[4-(3-cyanopyrrolidin-1-yl)piperidin-1-yl]-3-cyclobutyl-1-(4-fluorophenyl)-1H-pyrazolo[3,4-b]pyridine-6-carboxylic acid], for which the entries for the “% Activation” value in test [1] (setting [5]) and in test [2] were 304.4% and 611.45%, respectively. Besides, the pEC50 in test [1] (setting [5]) was 5.98; in test [2], 6.77.

Regarding `CC(C)c1nn(-c2cccc(N(C)C)c2)c2nc(C(=O)O)cc(-c3ccc(N4CCC(C#N)CC4)nc3)c12` [compound 177], the “% Activation” value worked out at 364.43% in test [1] (setting [3]) and 606.47% in test [2]. The pEC50 in test [1] (setting [4]) is 6.15; in test [2] it was 6.16.

`CN(C)c1ncc(-c2cc(C(=O)O)nc3c2c(C(C)(C)C)nn3C2CCCC2)cn1` [compound 91, 3-tert-butyl-1-cyclopentyl-4-[2-(dimethylamino)pyrimidin-5-yl]-1H-pyrazolo[3,4-b]pyridine-6-carboxylic acid]: the “% Activation” value in test [1] (setting [3]) is listed as 43.54%; in test [2] it was 176.6%. For the same compound, the pEC50 in test [1] (setting [4]) and in test [2] was 5.48 throughout.
